The values that follow come from patent US10525030B2 (priority 2013, dated 2020).

Each structure is given as a SMILES string.

For this experiment, the system named is lithium-pilocarpine model of temporal lobe epilepsy. Description: Neuroprotection activity using the lithium-pilocarpine model of temporal lobe epilepsy. The experiment is classed as in vivo, Male Sprague-Dawley rats. As to conditions: rats after Li-pilocarpine. Here is the method: Male Sprague-Dawley rats (purchased from Orient Bio Inc. Korea) of body weight 175-230 g were used for these studies and housed 4 rats per cage for 4-5 days. On the day prior to status epilepsy (SE), rats received 127 mg/kg lithium chloride (Sigma, St. Louis, Mo., U.S.A.) intraperitoneal (i.p.). Approximately 18-20 h following this treatment, rats were given an i.p. injection of 43 mg/kg pilocarpine (Sigma). An i.p. injection of 2 mg/kg methyl-scopolamine (Sigma) was administered 30 min prior to pilocarpine to block the effects of the muscarinic agonist on peripheral cholinergic receptors. The effects of various dose compound (or example) 1, 65 and 67, dissolved in 30% Poly Ethylene Glycol 400 (Acros Organics, Geel, Belgium) were studied at 30 min after SE onset. The drugs were administered i.p. in a volume of 2 ul/g body weight. Pharmacological effects of all the test materials were evaluated to compared test groups (n=8) with a control group (n=8). Control group was administrated vehicle, only. All animals were kept for 2 weeks to look at the mortality and quantification of cell densities was performed 14 days after SE in test groups and control rats not subjected to SE. The animals were deeply anesthetized by injection lumpun plus zoletile, 7:3 (v/v) and perfused transcardially with 150 ml of ice-cold 0.01 M phosphate buffer followed by 250 ml of freshly prepared ice-cold 4% paraformaldehyde (PFA) in 0.1 M phosphate buffer, pH 7.4. The brains were removed and postfixed in the same fixative for an additional 22˜24 h at 4° C., and then transferred to 30% sucrose for cryoprotection until the samples were precipitated. Brains were frozen in methyl butane with dry ice and stored at −80° C. Serial coronal […] slices were cut in a cryostat (Microtome HM 1850, Leica, Germany) and put the sections onto the slides, and air-dried before thionine staining. Every fifth section was selected for morphometric analysis.
Neuronal density quantification was performed automatically with the MCID Elite software (Interfocus Ltd, Linton, UK) by counting the number of neurons present in a defined area of the structure of interest (dorsal hippocampus—CA1, CA3, DZ) and carried out with a microscopic enlargement of 200- or 400-fold. Countings were performed twice on each side in each region by a single observer unaware of animal's treatment and averaged. In each structure, the mean and minimal surface area of the neurons were determined in order to count only neurons and exclude glial cells with smaller cell bodies. (Ref., Jennifer François, Katuschia Germe, Arielle Ferrandon, Estelle Koning, Astrid Nehlig (2011) Carisbamate has powerful disease-modifying effects in the lithium-pilocarpine model of temporal lobe epilepsy, Neuropharmacology 61: 313˜328)
Data were expressed as mean±sem. Statistical analysis of difference between groups was evaluated by ANOVA followed by Dunnett's test or Bonferroni test as a post hoc analysis using Statistica (Statsoft, Inc., USA). Difference was considered statistically significant when the p value was less than 0.05.

In turn, `C[C@H](OC(N)=O)[C@@H](O)c1ccccc1I` [Compound 65, 1-(2-iodophenyl)-(S)-1-hydroxypropyl-(S)-2-carbamate] showed a survival rate (5 mg/kg i.p. 30 min after SE onset, kept 2 weeks (FIG. 4)) of 50%; a survival rate (25 mg/kg i.p. 30 min after SE onset, kept 2 weeks (FIG. 4)) of 62.5%; a survival rate (50 mg/kg i.p. 30 min after SE onset, kept 2 weeks (FIG. 4)) of 100%.

In the case of `CC[C@H](OC(N)=O)[C@@H](O)c1ccccc1I` [Compound 67, 1-(2-iodophenyl)-(S)-1-hydroxybutyl-(S)-2-carbamate], the survival rate (30 mg/kg i.p. 30 min after SE onset, kept 2 weeks (FIG. 5)) stood at 25% and the survival rate (120 mg/kg i.p. 30 min after SE onset, kept 2 weeks (FIG. 5)) amounted to 100%.
